Entries after “also recorded” stand apart in the source; their conditions may differ.
Experiments:
[1] = tested on: female CD-1 mice; test: Rectal temperature (mouse hypothermia assay); details: oral 0.05-56 mg/kg, 90 min after administration
Experimental: (§1) Compounds were administered at a volume of […] via oral gavage.
(§2) Female CD-1 mice (20-25 g), obtained from Charles River (Raleigh, N.C.), were used for assessment in hot plate nociception, rectal temperature, and ring immobility assays. Separate mice were used for testing each dose of each compound in this battery of procedures. The mice had free access to food and water when in their home cages. All animals were kept in a temperature-controlled (20-22° C.) environment with a 12-hour light-dark cycle (lights on at 7 a.m.).
Each mouse was tested in a battery of three tests, in which cannabinoid CB1 agonists produce in vivo effects in mice (Martin et al., 1991): antinociception (hot plate assay), decreased rectal temperature and ring immobility. Prior to administration of the test compound, rectal temperature and baseline latency in the hot plate test were measured in the mice. The latter procedure involved placing the mouse on a heated surface (mouse cold/hot plate analgesia apparatus; Stoelting, Wood Dale, Ill.) at a setting of 55° C. Time until the mouse lifts or licks a paw was measured, whereupon the mouse was removed from the apparatus. […] Subsequently, the mice were placed on a 5.5 cm ring attached at a height of 16 cm to a ring stand, and the amount of time the animals remained motionless during a 5 min period was recorded. In addition, the number of times the mouse fell or jumped off the ring was recorded. […]
Rectal temperature values were expressed as the difference between control temperature (before injection) and temperature following drug administration (Δ° C.). Antinociception was expressed as the percent maximum possible effect (MPE) using a 30-s maximum test latency as follows: [(test−control)/(30−control)]×100. During assessment for catalepsy, the total amount of time (in seconds) that the mouse remained motionless on the ring apparatus (except for breathing and whisker movement) was measured and was used as an indication of catalepsy-like behavior. […]

[2] = molecular target: T1, hCB2 receptor (Homo sapiens, UniProt P34972); test: biochemical
From the text: When the CB1 or CB2 receptor is activated by an agonist, the affinity of the G protein alpha subunit increases with respect to GTP vs. GDP. As a consequence, GDP is displaced from the G protein and GTP or GTPγS binds. If a radioactive label, such as [^35S], is attached to the GTPγS molecule, then the formation of the G protein/[^35S]GTPγS complex can be directly measured using liquid scintillation spectrophotometry.
The CB1 and CB2 receptor assays involve membrane preparations purchased from Perkin Elmer (Waltham, Mass.) isolated from a HEK-293 expression system. G-protein coupled signal transduction (GTP-γ-[35S]) assays of test compounds were conducted in an incubation mixture consisting of a test compound (250 nM-1 mM), GDP (20 μM), GTP-γ-[35S] (100 pM), and the hCB1 and hCB2 membrane preparations (0.4 pM) in a total volume of 0.4 mL of assay buffer (50 mM TRIS-HCl, pH 7.4, 1 mM EDTA, 100 mM NaCl, 5 mM MgCl2, 0.5% (w/v) BSA). Nonspecific binding was determined in the presence of 100 μM unlabeled GTP-γ-S, and basal binding was determined in the absence of drug. Duplicate samples were incubated for 1 h at 30° C., and the bound complex was filtered from the reaction mixture as described previously and counted in a liquid scintillation counter. Specific binding was calculated by subtracting nonspecific binding from total binding and dividing by the total basal binding minus nonspecific binding. Data were plotted and analyzed with GraphPad Prism (GraphPad Software, Inc., San Diego, Calif.).

[3] = molecular target: T1, hCB2 receptor; test: CB receptor radioligand binding assay, human CB2; design: expressed in transfected cells; host or cells: HEK-293T
Experimental: Membrane preparation—HEK-293T cells were cultured according to ATCC (Manassas, Va.) guidelines and transfected with human CB1 cDNA (Genbank X54937) or CB2 cDNA (Genbank X74328), operably linked to the SV40 promoter, using Polyfect (Qiagen, Valencia, Calif.) or Fugene (Roche, Nutley, N.J.) according to manufacturer's instructions. 48 h after transfection, cells were harvested in ice cold membrane buffer (20 mM HEPES, 6 mM MgCl2, 1 mM EDTA, pH 7.2) using a cell scraper. Cells were transferred to a nitrogen cavitation chamber and a pressure of […] was applied for 30 min. The pressure was released and the cell debris was collected and centrifuged at 1000 g at 4° C. for 10 min. The supernatant was collected and the spin was repeated until the supernatant was free of precipitate. […] The membrane concentration was determined using a BioRad (Hercules, Calif.) protein assay dye reagent according to manufacturer's instructions. […]
Membranes were incubated for 2 hr at room temperature, then filtered onto a presoaked (with 0.1% polyethylenimine for 1 to 2 hr) 96 well GF/B filterplate (Packard Bioscience, Shelton, Conn.) and washed with […] ice cold wash buffer (25 mM HEPES, 1 mM CaCl2, 5 mM MgCl2, 0.25M NaCl) using a Filtermate 196 Harvester (Packard Instruments, Downers Grove, Ill.). […] Plates were counted on a Topcount NXT (Packard, Shelton, Conn.). […]

[4] = tested on: female CD-1 mice; test: Ring immobility (catalepsy) test
Experimental: The cataleptic response was measured using the ring test described by Pertwee (Pertwee R G, The Ring Test. A Quantitative Method of Assessing the Cataleptic Effect of Cannabis in Mice, Br. J. Pharmacol. 46:753-763 (1972)). Mice were placed on a horizontal wire ring 5.5 cm in diameter attached to a 16 cm vertical rod. The hind paws and fore paws were placed at opposite sides of the ring. The ambient temperature was maintained at 30° C. and the environment was free of auditory stimuli and bright lights. The response was calculated as the fraction of time the mouse was immobile over a five (5) minute test period.
A dose response was conducted for ultrapure AJA to oral doses of 0.05 to 56 mg/kg.
as §1, §2
Each mouse was tested in a battery of three tests, in which cannabinoid CB1 agonists produce in vivo effects in mice (Martin et al., 1991): antinociception (hot plate assay), decreased rectal temperature and ring immobility. Prior to administration of the test compound, rectal temperature and baseline latency in the hot plate test were measured in the mice. The latter procedure involved placing the mouse on a heated surface (mouse cold/hot plate analgesia apparatus; Stoelting, Wood Dale, Ill.) at a setting of 55° C. Time until the mouse lifts or licks a paw was measured, whereupon the mouse was removed from the apparatus. […] After measurement of baseline temperature and hot plate latency, mice were administered vehicle or drug via oral gavage. […] Subsequently, the mice were placed on a 5.5 cm ring attached at a height of 16 cm to a ring stand, and the amount of time the animals remained motionless during a 5 min period was recorded. In addition, the number of times the mouse fell or jumped off the ring was recorded. If the mouse fell off the ring more than 5 times, the test was terminated.
Rectal temperature values were expressed as the difference between control temperature (before injection) and temperature following drug administration (Δ° C.). Antinociception was expressed as the percent maximum possible effect (MPE) using a 30-s maximum test latency as follows: [(test−control)/(30−control)]×100. During assessment for catalepsy, the total amount of time (in seconds) that the mouse remained motionless on the ring apparatus (except for breathing and whisker movement) was measured and was used as an indication of catalepsy-like behavior. This value was divided by 300 s and multiplied by 100 to obtain a percent immobility. If the mouse fell off the ring more than 5 times, the test was terminated and ring immobility data for the mouse were not included in analysis. Separate between-subjects ANOVAs were used to analyze each measure. Significant differences from control (vehicle) were further analyzed with Tukey post hoc tests (α=0.05) as necessary.

[5] = tested on: CD-1 mice, arachidonic acid induced paw edema; test: Arachidonic acid induced paw edema model; assay type: in vivo, mouse; details: oral 5, 50 and 500 ug/kg, 90 min before arachidonic acid, paw volume 45 min after injection
Experimental: CD-1 Mice (Female) were randomly allocated to experimental groups and allowed to acclimatise for one week. Prior to test compound administration, baseline right hind paw volume was measured under gas (isoflurane) anaesthesia using a water displacement device (plethysmometer, Stoelting). On Day 0, ultrapure AJA suspended in 2% MC or vehicle was administered at 0, 5, 50 and 500 ug/kg by oral gavage. Ninety minutes after treatment administration, the animals were given 10 microliters of a 100 mg/ml arachidonic acid solution in 5% ethanol by subcutaneous injection into the plantar aspect of the right hind paw. A control group of animals (Group 1) was administered with an equivalent volume of a 5% ethanol solution. The left hind paws were not injected. Intra-plantar injections were performed under gas anaesthesia. 45 minutes after the intra-plantar injections right hind paw volume was measured under gas anaesthesia using a plethysmometer.

[6] = tested on: female CD-1 mice; test: Mouse hot plate test for antinociception; assay type: in vivo
[7] = dose response 0.05 to 56 mg/kg oral

T1 sequence (P34972 whole entry): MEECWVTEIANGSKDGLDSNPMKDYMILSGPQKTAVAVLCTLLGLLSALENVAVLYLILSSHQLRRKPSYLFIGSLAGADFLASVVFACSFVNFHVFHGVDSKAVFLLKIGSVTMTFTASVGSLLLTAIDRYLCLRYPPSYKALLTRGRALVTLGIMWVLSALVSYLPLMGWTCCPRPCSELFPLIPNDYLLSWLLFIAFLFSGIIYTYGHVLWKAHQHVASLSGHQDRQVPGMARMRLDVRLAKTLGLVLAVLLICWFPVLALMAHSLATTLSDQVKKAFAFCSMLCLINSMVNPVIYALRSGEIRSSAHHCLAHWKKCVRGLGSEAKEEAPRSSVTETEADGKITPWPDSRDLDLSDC

CCCCCCC(C)(C)c1cc(O)c2c(c1)OC(C)(C)[C@@H]1CC=C(C(=O)O)C[C@@H]21 [JBT-101, (6aR,10aR)-3-(1′,1′-dimethylheptyl)-Δ8-tetrahydro-cannabinol-9-carboxylic acid]
change in rectal temperature (hypothermia) [1]: None of the doses tested produced significant; also recorded: inactive
EC50 ([2]; hCB2 EC50 Mean (±SEM), GTP-γ-35S turnover, mean of 4 repetitions): 1.02 ± 0.092 µM
EC50 ([2]; hCB2 EC50 Rep 1, GTP-γ-35S turnover, replicate 1): 0.93 µM
EC50 ([2]; hCB2 EC50 Rep 2, GTP-γ-35S turnover, replicate 2): 0.815 µM
EC50 ([2]; hCB2 EC50 Rep 3, GTP-γ-35S turnover, replicate 3): 1.23 µM
EC50 ([2]; hCB2 EC50 Rep 4, GTP-γ-35S turnover, replicate 4): 1.1 µM
Ki [3]: 0.051 ± 0.011 µM
doses required to see catalepsy compared with AJA (3a) from U.S. Pat. No. 5,338,753 [4, 7]: required much higher doses
percent ring immobility in the catalepsy test ([4]; lower oral doses, up to 10 mg/kg): did not affect this measure
percent ring immobility in the catalepsy test ([4]; oral 30 and 56 mg/kg, vs vehicle, p<0.05): significantly increased percent ring immobility
doses at which active in the ring test ([4]; oral in oil, FIG. 14): ≥ 30 mg/kg
inhibition of paw volume / inflammation [5]: effective at doses well below the doses in which CB1 activity is observed
inhibition of paw volume / inflammation ([5]; listed as ultrapure AJA): effective at all doses tested
doses required to see analgesia compared with AJA from U.S. Pat. No. 5,338,753 [6, 7]: required much higher doses
antinociception in the hot plate test (% MPE) ([6]; oral 0.05-56 mg/kg, 90 min after administration, vs vehicle): None of the doses tested produced significant antinociception
doses at which active in the mouse hot plate assay ([6]; oral, FIG. 15): ≥ 30 mg/kg
